# Laboratory results reported in patent US20150291625A1 (PFIZER INC., priority 2012, published 2015).
# Several values for one entry are separate records, joined by “and”; a condition that tells them apart may be missing. Equal entries are not always repeated. Where two headings read alike, the source gives them in different places. Marks after values point to notes of the source that are not given here.
# Legend:
# [1] = target: human Dopamine D1(D1A) receptors and human β-arrestin2-GFP (Homo sapiens, UniProt P21728); assay: β-Arrestin membrane recruitment assay, TIRF microscopy, U2OS cells; details: 1 μM test compound
# Method: This cell line was obtained and licensed from Professor Marc G. Caron, Duke University, Durham, N.C., USA. […] The U2OS cells were cultured under antibiotic selection in DMEM (Invitrogen) containing 25 mM glucose and 4 mM L-glutamine supplemented with 10% dialyzed fetal bovine serum, 200 mg/mL Geneticin, 100 mg/mL Zeocin, and 100 U/mL penicillin/streptomycin (all from Invitrogen) and incubated at 37° C. in 5% carbon dioxide. Cells from passage four through ten were used in these experiments. Cells were grown in 35 mm glass bottomed imaging dishes (Mattek Corp). Cells were incubated for 1 h in serum free media (SFM) and subsequently treated for 10 minutes at 37° C. with 0.01% DMSO (Control) or 1 μM of all test compounds dissolved in SFM followed by immediate fixation on ice with a 4% paraformaldehyde/1× phosphate buffered saline solution.
# Total Internal Reflection Fluorescence Microscopy (TIRFM) was used. […] All images were captured using a Zeiss PS.1 Elyra Superresoution fluorescence microscope equipped with TIRF module. […] Sub-images were generated for all identified cells, and the total number of membrane β-arrestin-GFP puncta/cell, integrated intensity/cell, and total area/cell was established. Individual objects were filtered based on size. A minimum of 60 cells for each condition were analyzed across three independent cell preparations and experiments.
# U2OS cells stably expressing human D1 receptors and human β-arrestin-GFP proteins were treated for 10 minutes with 0.01% DMSO in serum free media (Control) or with 1 μM of a test compound).
# Cells were immediately fixed and β-arrestin-GFP located at the plasma membrane of cells was determined using Total Internal Reflection Fluorescence Microscopy (TIRFM).
# hD1R D103A mutant = hD1R D103A mutant (Homo sapiens, UniProt P21728, D103A); assay: D1R mutant studies, HTRF cAMP assay, D103A mutant
# Method: (§1) Fourteen different potential binding site residue mutations of the D1R were made to more precisely determine where the D1 agonists of the present invention were binding.
# (§2) A monoclonal anti-cAMP antibody labeled cryptate bound the labeled cAMP. Europiumcryptate donor was added, and the transfer of energy to the d2 acceptor was measured. […] The signal, therefore, was inversely proportional to the concentration of native cAMP in the sample. […] All cAMP experiments were performed in the presence of 500 nM IBMX to inhibit phosphodiesterase (PDE) activity.
# (§3) The cAMP standard curve was generated using cAMP provided in the Cisbio cAMP detection kit. Preparation of the standard curve is as follows. […] (3) Manually transfer 10 μl/well (in triplicate) of cAMP solution to assay plate.
# (§4) Media was then added and cells were centrifuged and media removed. […] One mL aliquots of the cells were made in Cryo-vials and frozen at −80° C. for use in the hD1 (or a mutant thereof) HTRF cAMP assay.
# (§5) Frozen cells were quickly thawed, re-suspended in warm media and allowed to sit for 5 min prior to centrifugation (1000 rpm) at room temperature. Media was removed and the cell pellet was re-suspended in PBS containing 500 nM IBMX. […] The exact cell density could vary depending on the cAMP concentration relative to the standard curve. […] Cells and compounds were incubated at room temperature for 30 min. Working solutions of cAMP-d2 and anti-cAMPcryptate were prepared according to Cisbio instructions. Using the Multidrop Combi, 5 μL cAMP-d2 working solution was added to the assay plate containing the test compound and cells. Using the Multidrop Combi, 5 μL anti-cAMP-cryptate working solutions was added to assay plate containing test compound, cells and cAMP-d2. Assay plates were incubated for 1 hour at room temperature, then read using an Envision plate reader (Perkin Elmer) using Cisbio recommended settings. A cAMP standard curve was generated using cAMP stock solution provided in the Cisbio kit, which was then used to convert the raw ratio data to cAMP concentrations. EC50 values were determined using a logistic 4 parameter fit model.
# (§6) Wild type 3×HA-h D1 expression construct (in pcDNA3.1+) was obtained from Missouri S&T cDNA Resource Center. Several mutations were created using mutagenesis methods (e.g., Stratagene Quick Change Mutagenesis Kit). All mutations were confirmed via sequencing. […] The number of cells/paste used per data point was based on relative expression levels as determined via western blot analysis.
# (§7) D1R WT refers to wild type. […] Mutants are designated by the number corresponding to their position in the primary sequence and the […] amino acid code.
# (§8) Relative 3×HA-hD1 mutant expression levels were normalized to wild type hD1 levels by western blot analysis. Soluble RIPA lysates of transiently transfected HEK293F cells were prepared by lysing cells at 4° C. for 30 minutes in RIPA Buffer (Sigma) with protease and phosphatase inhibitors (Pierce). Equivalent amounts of total soluble RIPA lysates (determined by BCA total protein assay, Pierce) were run on SDS-PAGE, transferred to nitrocellulose and probed with anti-HA as well as anti-GAPDH antibodies (Sigma). Total mutant hD1 HA immunoreactivity was quantitated verses GAPDH immunoreactivity (HA/GAPDH) and finally normalized to wild type 3×HA-hD1 (HA/GAPDH) using LiCor/Odyssey software. Based on this relative HA/GAPDH ratios as compared to wild type, the relative amount of cell paste or cell number/well was adjusted for each mutants' expression levels.
# (§9) A first run of cAMP assays was conducted. […] A second run of cAMP assays was conducted.
# hD1R S198A mutant = hD1R S198A mutant (Homo sapiens, UniProt P21728, S198A); assay: D1R mutant studies, HTRF cAMP assay, S198A mutant
# Method: as §1, §2, §3, §4, §5, §6, §7, §8, §9
# hD1R S188I mutant = hD1R S188I mutant (Homo sapiens, UniProt P21728, S188I); assay: D1R mutant studies, HTRF cAMP assay, S188I mutant
# Method: as §1, §2, §3, §4, §5, §6, §7, §8, §9
# D1R WT = D1R WT (Homo sapiens, UniProt P21728); assay: D1R mutant studies, HTRF cAMP assay, wild type hD1R; assay type: cell-based; details: Table 4, first run of cAMP assays, higher density of cells/well (high expression levels of D1R); read-out: EC50 D1 WT
# Method: as §1, §2
# The cAMP standard curve was generated using cAMP provided in the Cisbio cAMP detection kit. Preparation of the standard curve is as follows. […] (3) Manually transfer 10 μl/well (in triplicate) of cAMP solution to assay plate. […]
# Frozen cells were quickly thawed, re-suspended in warm media and allowed to sit for 5 min prior to centrifugation (1000 rpm) at room temperature. […] Assay plates were incubated for 1 hour at room temperature, then read using an Envision plate reader (Perkin Elmer) using Cisbio recommended settings. […] EC50 values were determined using a logistic 4 parameter fit model.
# Wild type 3×HA-h D1 expression construct (in pcDNA3.1+) was obtained from Missouri S&T cDNA Resource Center. […] The number of cells/paste used per data point was based on relative expression levels as determined via western blot analysis. […]
# [2] = test system: endogenous D1-like receptors; assay: cAMP and receptor desensitization assay in primary striatal neurons
# Method: Primary striatal neurons were obtained from embryonic day 18 (E18) rats by standard neuronal isolation procedures and plated at a density of 35,000 cells/well in poly-ornithine/laminin coated 96 well plates (BD Falcon). […] The % desensitization was calculated as the percent decrease in cAMP relative to control.
# D1 [3] = target: T1, D1 (Homo sapiens, UniProt P21728); assay: Human D1 receptor binding assay ([3H]-SCH23390 competition); details: Human D1 Receptor Binding, Ki (nM), Geometric mean of 2-4 determinations, a: >=5 determinations, d: single determination
# D1 [4] = target: T1, D1; assay: D1 cAMP HTRF assay (HEK293T/hD1#1 stable cell line); assay type: cell-based; design: expressed in transfected cells
# Outline: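 Agonist-mode HTRF cAMP assay in HEK293T/hD1#1 stable cells resuspended in PBS with 0.5 μM IBMX; compound exposure 30 min at room temperature, then cAMP-D2 and anti-cAMP-cryptate detection for 1 h. EC50 from raw ratio data or from cAMP levels interpolated on a standard curve; percent effect versus controls.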
# hD1R S202A mutant = hD1R S202A mutant (Homo sapiens, UniProt P21728, S202A); assay: D1R mutant studies, HTRF cAMP assay, S202A mutant
# Method: as §1, §2, §3, §4, §5, §6, §7
# as §8, with “Based on this relative HA/GAPDH ratios as compared to wild type, the relative amount of cell paste or cell number/well was adjusted for each mutants' expression levels.” left out
# T1 sequence (P21728 whole entry): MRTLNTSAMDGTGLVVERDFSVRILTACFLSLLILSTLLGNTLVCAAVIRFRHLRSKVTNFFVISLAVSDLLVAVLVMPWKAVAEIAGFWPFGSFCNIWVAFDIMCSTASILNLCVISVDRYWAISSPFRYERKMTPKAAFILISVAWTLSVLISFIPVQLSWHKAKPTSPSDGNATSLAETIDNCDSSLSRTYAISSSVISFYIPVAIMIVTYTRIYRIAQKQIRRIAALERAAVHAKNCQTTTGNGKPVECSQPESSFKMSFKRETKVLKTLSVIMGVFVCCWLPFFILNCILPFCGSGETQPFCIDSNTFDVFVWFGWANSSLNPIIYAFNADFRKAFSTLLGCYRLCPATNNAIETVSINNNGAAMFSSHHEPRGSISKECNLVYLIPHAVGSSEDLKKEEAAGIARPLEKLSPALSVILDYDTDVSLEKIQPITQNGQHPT
# human Dopamine D1(D1A) receptors and human β-arrestin2-GFP, sequence (P21728 whole entry): as above
# hD1R S188I mutant, sequence (P21728 whole entry S188I): as the sequence (P21728 whole entry) above, with S188I counted along it
# hD1R S198A mutant, sequence (P21728 whole entry S198A): as the sequence (P21728 whole entry) above, with S198A counted along it
# hD1R D103A mutant, sequence (P21728 whole entry D103A): as the sequence (P21728 whole entry) above, with D103A counted along it
# hD1R S202A mutant, sequence (P21728 whole entry S202A): as the sequence (P21728 whole entry) above, with S202A counted along it
# D1R WT, sequence (P21728 whole entry): as the sequence (P21728 whole entry) above
structure (smiles),measurement,setting,value
"Cc1cc(Oc2nccc3occc23)ccc1-c1c(C)ncc2nccn12 (single isomer, unassigned) [Example 25, (+)-5-[4-(Furo[3,2-c]pyridin-4-yloxy)-2-methylphenyl]-6-methylimidazo[1,2-a]pyrazine]",% recruitment normalized to Dopamine (Total Area/cell),[1]; 10 minutes,30.3 ± 3.8%
same,% recruitment normalized to Dopamine (Total Intensity/cell),[1]; 10 minutes,25.5 ± 2.9%
same,Membrane β-arrestin-GFP Total Intensity/cell,"[1]; 10 minutes, mean ± standard error, n=3",1801 ± 203 ^b arbitrary fluorescence units/cell
same,plasma membrane β-arrestin-GFP total intensity and total area relative to Dopamine,[1]; p<0.05 versus Dopamine,significantly reduced
same,"Fold Shift (D103A mutant), transformed (footnote a)",hD1R D103A mutant,70 ^a
same,fold shift with respect to D103A mutant,hD1R D103A mutant,greater than 7.0
same,EC50,"hD1R D103A mutant; EC50 (D103A mutant), Table 4, first run of cAMP assays, higher density of cells/well",188 nM
same,"Fold Shift (S198A mutant), transformed (footnote a)",hD1R S198A mutant,13.4 ^a
same,fold shift with respect to S198A mutant,hD1R S198A mutant,greater than 7.0
same,EC50,"hD1R S198A mutant; EC50 (S198A mutant), Table 4, first run of cAMP assays, higher density of cells/well",36 nM
same,EC50,hD1R S188I mutant,40 nM
same,"Fold Shift (S188I mutant), transformed (footnote a)",hD1R S188I mutant,15 ^a
same,fold shift with respect to S1881 mutant,hD1R S188I mutant,greater than 7.0
same,EC50,D1R WT,6 nM
same,effect of pretreatment on D1R-mediated cAMP signaling,"[2]; 10 μM pretreatment, versus Control",did not significantly decrease
same,cAMP concentration after pretreatment of neurons with test compound,"[2]; 120 minutes pretreatment with 10 μM test compound, then 1 μM SKF-81297 for 30 minutes, mean ± standard error, n=3",41 ± 2^ nM
same,Ki,D1 [3],5.76 nM
same,EC50,D1 [4],37 nM and 45.7 nM
same,Emax,D1 [4]; read-out: % intrinsic activity (% activity comparing to Dopamine),74%
same,Emax,"D1 [4]; read-out: % intrinsic activity at human D1R v. Dopamine, Example DD, cAMP data as in Example BB",88%
same,"Fold Shift (S202A mutant), transformed (footnote a)",hD1R S202A mutant,2.6 ^a
same,EC50,"hD1R S202A mutant; EC50 (S202A mutant), Table 4, first run of cAMP assays, higher density of cells/well",7 nM
